Results published in patent US20240130979A1, “COMPOSITIONS AND METHODS FOR TREATMENT OF SKIN CONDITIONS” (EpiTop, Inc., priority 2022, published 2024).

How the values were obtained:
Assay type in all cases: cell-based, human
FLG [1] = experiment: FLG gene expression in keratinocytes from atopic dermatitis patients (Example 3); conditions: keratinocytes from AD patients, 0.01 v/v % thujopsene, 24 hours, P<0.05 (FIG. 3A)
Description: (§1) Human epidermal keratinocytes taken from atopic dermatitis (AD) patients were differentiated in the presence of 1.3 mmol/L of CaCl2) for 3 days, and then the cells were stimulated with 0% and 0.01 v/v % of thujopsene for an additional 24 hours. Total RNA was isolated from keratinocytes. Gene expression levels of FLG and LOR were determined by real-time RT-PCR and normalized to the corresponding 18s RNA transcript in the cultured keratinocytes.

HBD-3 = HBD-3 gene expression in NHEKs (Example 5); conditions: 0.01% and 0.02% thujopsene, 24 hours, dose-dependent, versus no thujopsene (FIG. 5A)
Description: (§2) The upregulation of expressions of HBD-3, LL-37, OR2AT4, and/or SIRT1 can promote would healing and the upregulation of SIRT1 can inhibit tumor cell growth in skin cancer. To investigate the effects of thujopsene on expression of RBD-3, LL-37, OR2AT4, and SIRT1, NHEKs were differentiated in the presence of 1.3 mmol/L of CaCl2) for 3 days. Then cells were stimulated with 0.01% or 0.02% thujopsene for an additional 24 hours. The cell culture medium with 0.1% was used as a vehicle control because thujopsene was diluted with 0.1% of DMSO in cell culture medium.
(§3) Total RNA was isolated from to the cells, and real time RT-PCRs were performed by using an ABI Prism 7300 sequence detector.

FLG [2] = experiment: FLG gene expression in NHEKs, real-time RT-PCR (Example 1); conditions: 0.01 and 0.02 v/v % thujopsene, 24 hours, dose-dependent, normalized to 18s RNA (FIG. 1A)
Description: (§4) Normal human epidermal keratinocytes (NHEKs) were cultured in a conventional way. NHEKs (Life Technologies, Grand Island, NY, USA) were derived from neonatal foreskin and were grown in serum-free EpiLife cell culture medium (Life Technologies) containing 0.06 mmol/L calcium chloride, 1% human keratinocyte growth supplement S7 (Life Technologies), and 1% of gentamicin/amphotericin. To investigate the effects of thujopsene on the expressions of FLG and LOR, NHEKs were seeded at 2×10^5 cells per well (24-well plate) and differentiated in the presence of 1.3 mmol/L of CaCl2) for 3 days. Then the cells were stimulated with 0 v/v %, 0.01 v/v % and 0.02 v/v % of thujopsene, IL-4 and IL-13, or IFN-γ for an additional 24 hours. Total RNA was isolated from NHEKs. Gene expression levels of FLG and LOR were determined by real-time RT-PCR using an ABI Prism 7300 sequence detector. Gene expressions of FLG and LOR were normalized to the corresponding 18s RNA transcript in the cultured NHEKs.

FLG [3] = experiment: Th2 cytokine (IL-4 and IL-13)-mediated inhibition of FLG in NHEKs (Example 2); conditions: 0.01% thujopsene 24 hours, then IL-4 and IL-13 with thujopsene for 2 days (FIG. 2)
Description: NHEKs were differentiated in the presence of 1.3 mmol/L of CaCl2) for 3 days. HEKs were incubated with 0.01% of thujopsene for 24 hours, and then the cells were continuously stimulated with IL-4 and IL-13 in the presence or absence of 0.01% of thujopsene for an additional 2 days. The gene expression of FLG was examined using real-time RT-PCR.

LOR [4] = experiment: PM2.5-mediated inhibition of LOR in NHEKs (Example 4); conditions: 0.01% thujopsene 24 hours, then PM2.5 (1 ng/mL) plus thujopsene 48 hours (FIG. 4B)
Description: (§5) To investigate the effects of the PM2.5 on the expression of FLG and LOR, NHEKs were differentiated in the presence of 1.3 mmol/L of CaCl2) for 3 days. Then cells were stimulated with PM2.5 (1 ng/mL) for an additional 48 hours.
(§6) To examine whether thujopsene blocks PM2.5-mediated inhibition of epidermal barrier proteins such as FLG and LOR, NHEKs were incubated with thujopsene (0.01 v/v %) for 24 hours, and then cells were stimulated with PM2.5 (1 ng/mL) or combination of thujopsene (0.01 v/v %) and PM2.5 for an additional 48 hours. Total RNAs were isolated from the cells, and real time RT-PCR was performed. EpiLife cell culture medium with 0.1% DMSO was used as a vehicle control for all in vitro experiments, as PM2.5 was diluted with EpiLife cell culture medium with 0.1% DMSO.

SIRT1 [5] = experiment: SIRT1 gene expression in NHEKs (Example 5); conditions: 0.01% and 0.02% thujopsene, 24 hours, dose-dependent, versus no thujopsene (FIG. 5D)
Description: as §2, §3

LOR [6] = experiment: LOR gene expression in keratinocytes from atopic dermatitis patients (Example 3); conditions: keratinocytes from AD patients, 0.01 v/v % thujopsene, 24 hours, P=0.01 (FIG. 3B)
Description: as §1

FLG [7] = experiment: PM2.5-mediated inhibition of FLG in NHEKs (Example 4); conditions: 0.01% thujopsene 24 hours, then PM2.5 (1 ng/mL) plus thujopsene 48 hours (FIG. 4A)
Description: as §5, §6

SIRT1 [8] = experiment: SIRT1 gene expression in NHEKs (Example 6)
Description: (§7) IL-6 aging process and wrinkling and is induced by lipopolysaccharide (LPS) (PMID: 23659624). SIRT1 inhibits skin aging and wrinkling process (PMID: 24011076). To investigate the effects of thujopsene on expression of IL-6 and SIRT1, NHEKs were seeded at 2×10^5 cells per well and differentiated in the presence of 1.3 mmol/L of CaCl2) for 3 days. NHEKs were stimulated with 0.01% or 0.02% thujopsene for 24 hours, and then cells were stimulated with LPS (1 μg/mL) alone or a combination of LPS (1 μg/mL) and thujopsene (0.01%) for an additional 24 hours. The cell culture medium with 0.1% DMSO was used as a vehicle. Total RNAs were isolated from cells, and real time RT-PCRs were performed by using an ABI Prism 7300 sequence detector.

LOR [9] = experiment: LOR gene expression in NHEKs, real-time RT-PCR (Example 1); conditions: 0.01 and 0.02 v/v % thujopsene, 24 hours, dose-dependent, normalized to 18s RNA (FIG. 1B)
Description: as §4

NHEKs = experiment: LDH cell cytotoxicity assay in NHEKs (Example 7)
Description: LDH cell cytotoxicity assay: NHEKs were plated at 2×10^5 cells per well in a 24-well plate and differentiated in the presence of 1.3 mmol/L of CaCl2) for 3 days. To examine cell toxicity of thujopsene, the cells were treated with various concentrations of thujopsene for 48 hours, and lactate dehydrogenase (LDH) release was then determined using CytoTox-One Homogeneous Membrane Integrity Assay (Promega, Madison, WI, USA) according to the manufacturer's instructions. Fluorescence was measured on a DTX880 Multimode Detector (Beckman Coulter, Brea, CA, USA) with an excitation wavelength of 560 nm and an emission wavelength of 590 nm. Samples were tested in triplicate and fluorescence results were normalized by subtracting a PBS blank and compared to the keratinocyte LDH release in response to the treatment with 1% triton X-100 solution (maximum LDH release).

OR2AT4 = OR2AT4 gene expression in NHEKs (Example 5); conditions: 0.01% and 0.02% thujopsene, 24 hours, dose-dependent, versus no thujopsene (FIG. 5C)
Description: as §2, §3

LL-37 = LL-37 gene expression in NHEKs (Example 5); conditions: 0.01% and 0.02% thujopsene, 24 hours, dose-dependent, versus no thujopsene (FIG. 5B)
Description: as §2, §3

IL-6 = experiment: LPS-induced IL-6 gene expression in NHEKs (Example 6); conditions: thujopsene (0.01%) plus LPS (1 μg/mL), 24 hours, versus LPS alone (FIG. 6A)
Description: as §7

## CC1=CC[C@]2(C)CCCC(C)(C)[C@@]23C[C@@H]13 [thujopsene]
FLG [1]
  FLG gene expression compared to vehicle: significantly increased
HBD-3
  gene expression of RBD-3: significantly increased
FLG [2]
  FLG gene expression: significantly increases
FLG [3]
  FLG gene expression, Th2 cytokines plus thujopsene compared with Th2 cytokines alone: significantly (P<0.01) increased
LOR [4]
  level of expression of the LOR gene, PM2.5 plus thujopsene versus control: about equal to the control
SIRT1 [5]
  gene expression of SIRT1: significantly increased
LOR [6]
  LOR gene expression compared to vehicle: significantly increased
FLG [7]
  level of expression of the FLG gene, PM2.5 plus thujopsene versus control: higher than the control
SIRT1 [8]; 0.01% thujopsene, P<0.05 versus no thujopsene (FIG. 6B)
  gene expression of SIRT1: significantly increased
SIRT1 [8]; 0.02% thujopsene, P<0.01 versus no thujopsene (FIG. 6B)
  gene expression of SIRT1: significantly increased
LOR [9]
  LOR gene expression: significantly increases
NHEKs; thujopsene up to 0.04 v/v % (FIG. 7 legend)
  toxicity to NHEKs: not toxic
NHEKs; thujopsene up to 4 v/v %, 48 hours (FIG. 7)
  LDH release compared to cells treated with media alone: significantly decreased
NHEKs; thujopsene up to 4 v/v %, 48 hours, LDH release (FIG. 7)
  toxicity to NHEKs: not toxic
OR2AT4
  gene expression of OR2AT4: significantly increased
LL-37
  gene expression of LL-37: significantly increased
IL-6
  LPS-induced expression of IL-6: significantly (P<0.01) attenuated
